Reference: US6869957B1, “Non-peptide tachykinin receptor antagonists” (Eli Lilly and Company, priority 1993, dated 2005)

Assays:
[1] = biological target: T1, NK-1 receptor (Homo sapiens, UniProt P25103); assay: NK-1 Receptor Binding Assay (125I-labeled substance P, IM9 cells); conditions: inhibits fifty percent of binding of 125I-substance P to IM9 cells
T1 construct: endogenous in cells; host or cells: IM9 cells (human cell line), whole cells
Summary of the method: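 Radioligand binding on human IM9 cells, ended by filtration over glass fiber filters presoaked in 0.1% polyethylenimine. Specific binding of labeled substance P defined with 20 nM unlabeled ligand.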

[2] = biological target: T2, human NK-2 receptor (Homo sapiens, UniProt P21452); assay: NK-2 Receptor Binding Assay ([125I]iodohistidyl-neurokinin A, CHO-hNK-2R membranes); conditions: @ 10 μM
T2 construct: expressed in transfected cells; host or cells: CHO-hNK-2R cells (CHO-derived), membrane preparation
T2 sequence (P21452 1-398): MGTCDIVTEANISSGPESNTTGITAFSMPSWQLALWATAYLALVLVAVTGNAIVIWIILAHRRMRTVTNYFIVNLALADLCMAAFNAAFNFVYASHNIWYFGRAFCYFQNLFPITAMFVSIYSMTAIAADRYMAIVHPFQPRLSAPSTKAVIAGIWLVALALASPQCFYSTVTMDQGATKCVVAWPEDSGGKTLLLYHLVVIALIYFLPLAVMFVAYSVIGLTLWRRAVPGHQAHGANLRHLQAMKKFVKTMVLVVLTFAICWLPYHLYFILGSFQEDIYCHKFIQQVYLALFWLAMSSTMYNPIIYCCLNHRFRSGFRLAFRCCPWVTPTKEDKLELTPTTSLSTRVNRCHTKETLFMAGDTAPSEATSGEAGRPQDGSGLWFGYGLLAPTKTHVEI
Summary of the method: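 Membranes from CHO cells stably expressing human NK-2 receptor (~400,000/cell), 40 μg protein per sample, in 50 mM Tris pH 7.4 with 3 mM MnCl2, 0.02% BSA, 4 μg/ml chymostatin. Displacement of 20 pM [125I]iodohistidyl-neurokinin A, 1 hr at room temperature; GF/B filtration, gamma counting. Non-specific binding defined with 1 μM eledoisin.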

T1 sequence (P25103 whole entry): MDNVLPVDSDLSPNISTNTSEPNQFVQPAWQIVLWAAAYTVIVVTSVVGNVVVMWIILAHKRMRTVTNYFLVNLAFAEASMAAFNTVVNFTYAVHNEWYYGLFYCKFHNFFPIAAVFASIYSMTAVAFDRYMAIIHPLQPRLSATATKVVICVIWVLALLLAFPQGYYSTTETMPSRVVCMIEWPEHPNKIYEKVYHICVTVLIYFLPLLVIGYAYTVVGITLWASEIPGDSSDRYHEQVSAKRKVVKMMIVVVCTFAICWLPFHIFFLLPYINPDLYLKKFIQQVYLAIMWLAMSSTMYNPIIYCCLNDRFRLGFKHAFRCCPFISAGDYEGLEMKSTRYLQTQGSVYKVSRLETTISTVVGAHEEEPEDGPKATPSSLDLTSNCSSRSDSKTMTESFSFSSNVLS

COc1ccccc1CNCC(Cc1c[nH]c2ccccc12)NC(=O)CN1CCC(N2CCCCC2)CC1 (centres unmarked) [Example 44]
IC50 [1]: 0.025 µM | NK-2 percent inhibition of binding [2]: 54 % at
